Experimental data from patent publication US11098040B2, “Compounds and methods of use” (Ferro Therapeutics, Inc., priority 2018, dated 2021).
Like-named read-outs stand apart in the source and are kept apart here.

Tests used:
A549 = assay: Cell viability assay, A549 cells; assay type: cell-based; details: Homo sapiens, A549, A549; read-out: IC50 for A549
Procedure: Example 5: Inducer Compound Effect on Growth of A549 and KP4 Cells
Cell viability assay was performed to assess the potency of the compounds in cancer cell line KP4 (pancreatic ductal adenocarcinoma). Cells at a density of 1,000-10,000 cells/well were seeded in 96-well plates and incubated at 37° C. overnight. A series of 9 different concentrations of compound stocks (500×) were created by 3-fold serial dilution in DMSO. These compounds were further diluted in culture media and then added to cells so that the final DMSO concentration was equal to 0.25% or less. After 96 hours of incubation, 50 μL of CellTiter Glo reagent (Promega) was added to each well and luminescence was measured after 10 minutes using EnVision (PerkinElmer). All compounds were tested initially from 30 μM as the top concentration in duplicates (range of 4.6 nM-30 μM). […] Luminescence from cells treated with DMSO alone was set as Max and % of inhibition was calculated as follows: Inhibition %=(Max-Sample value)/Max*100. Data was analyzed using XL-fit software (ID Business Solutions Ltd.). IC50, relative IC50, or % of top inhibition was calculated. […]

SJSA-1 = assay: Cell proliferation (Alamar Blue) assay, SJSA-1 osteosarcoma, with/without ferrostatin; assay type: cell-based, human; details: Homo sapiens
Procedure: (§1) Cell viability assay was performed to assess the potency of the compounds in human cancer cell lines 786-O (renal cell carcinoma) and SJSA-1 (osteosarcoma). Additional cell lines, such as those described above in Example 4 as well as various others, e.g., pancreatic cancer cell lines (Panc 02.13, BxPC-3, Panc 12, Panc 02.03, Panc 6.03, PSN-1, HPAC, and Capan-1) and prostate cancer cell lines (PC-3, DU145, 22Rv1, NCI-H660, BPH1, LNCaP, BM-1604, and MDA PCa 2b), were tested for select compounds as shown in Table 25.
(§2) Cells (SJSA-1, 786-O and A431) were seeded (5000 cells/100 μL/well) in 96-well tissue culture plate and incubated at 37° C./5% CO2 for 16-24 hours. The cells were then treated with compounds (25 μL of 5×). The compound concentrations were 10-0.0005 μM prepared in 3-fold serial dilutions with final DMSO concentration of 1%. The plates were then incubated for 24 h at 37° C./5% CO2 in a moist environment. Then Alamar Blue™ reagent (final concentration 1×-12.5 μL) was added to each well and incubated for 1.5 hours at 37° C./5% CO2. The plates were read on fluorescence reader at 540 nm excitation and 590 nm emission wavelengths. The IC50 values were subsequently determined using a sigmoidal dose-response curve (variable slope) in GraphPad Prism® 5 software.
(§3) Studies have shown that lipophilic antioxidants, such as ferrostatin, can rescue cells from GPX4 inhibition-induced ferroptosis. For instance, mesenchymal state GPX4-knockout cells can survive in the presence of ferrostatin, however, when the supply of ferrostatin is terminated, these cells undergo ferroptosis (see, e.g., Viswanathan et al., Nature 547:453-7, 2017). […] Accordingly, the ability of a molecule to induce ferroptotic cancer cell death, and that such ability is admonished by the addition of ferrostatin, is clear indication that the molecule is an GPX4 inhibitor.

786-O = assay: Cell proliferation (Alamar Blue) assay, 786-O renal cell carcinoma, with/without ferrostatin; assay type: cell-based; details: Homo sapiens
Procedure: as §1, §2, §3

KP4 = assay: Cell viability assay (CellTiter Glo), pancreatic ductal adenocarcinoma KP4; assay type: cell-based, human; details: Homo sapiens, KP-4, 96 h, pancreatic cancer cell line KP4, 96 hours, CellTiter Glo; read-out: IC50 μM KP4
Summary of the method: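 KP4 cells seeded at 1,000–10,000 per well, treated 96 h with 9-point 3-fold dilutions from 30 μM top (4.6 nM–30 μM, duplicates; ≤0.25% DMSO). Viability by CellTiter Glo luminescence; % inhibition relative to DMSO-only wells, giving IC50, relative IC50 or % top inhibition.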

[1] = SJSA-1, Cell Line SJSA-1, read-out: IC50
[2] = 786-0, Cell Line 786-O, read-out: IC50
[3] = SJSA-1, 24 h, Alamar Blue, 24 h, 2 μM ferrostatin, read-out: SJSA-1 (IC50, μM) 2 μM Ferrostatin
[4] = SJSA-1, 24 h, Alamar Blue, 24 h, without ferrostatin, read-out: SJSA-1 (IC50, μM) Without Ferrostatin
[5] = 786-0, 24 h, Alamar Blue, 24 h, 2 μM ferrostatin, read-out: 786-O (IC50, μM) 2 μM Ferrostatin
[6] = 786-0, 24 h, Alamar Blue, 24 h, without ferrostatin, read-out: 786-O (IC50, μM) Without Ferrostatin

| IC50 (SJSA-1; [1]) [µM] | IC50 (786-O; [2]) [µM] | Structure (SMILES) | also measured |
| --- | --- | --- | --- |
| 0.38 | 0.21 | COc1ccc2c(c1)C[C@H](C)N(C(=O)CCl)[C@H]2c1ccc(C(=O)NC2CC2)cc1 [Compound 280] | – |
| – | 0.098 | C[C@H]1Cc2c([nH]c3ccccc23)[C@H](c2ccc(N3CCOCC3)nc2)N1C(=O)CCl [Compound 220] | – |
| 0.261 | 0.206 | COc1ccc2[nH]c3c(c2c1)C[C@H](C)N(C(=O)CCl)[C@H]3c1ccc(F)cc1 [Compound 281] | – |
| 1.4 | 8.1 | C[C@H]1Cc2c([nH]c3ccccc23)[C@H](c2ccc(S(=O)(=O)NC3CCNCC3)cc2)N1C(=O)CCl [Compound 218, 4-((1S,3S)-2-(2-chloroacetyl)-3-methyl-2,3,4,9-tetrahydro-1H-pyrido[3,4-b]indol-1-yl)-N-(piperidin-4-yl)benzenesulfonamide] | – |
| – | 0.27 | C#CC(=O)N1[C@@H](c2ccc(N3CCOCC3)cc2)c2[nH]c3ccccc3c2C[C@@H]1C [Compound 231] | – |
| 1 | 0.58 | C#CC(=O)N1[C@@H](c2ccc(C(=O)NC3CC3)cc2)c2ccc(OC)cc2C[C@@H]1C [Compound 279] | – |
| 0.436 | 0.223 | C#CC(=O)N1[C@@H](c2ccc(F)cc2)c2[nH]c3ccc(OC)cc3c2C[C@@H]1C [Compound 282] | – |
| 0.028 | 0.022 | C[C@H]1Cc2c([nH]c3ccccc23)[C@H](c2ccc(S(=O)(=O)NC3CC3)cc2F)N1C(=O)CCl (single isomer, unassigned) [Compound 217] | – |
| 0.14 | 0.22 | COC(=O)c1ccc([C@H]2c3[nH]c4ccc(OC)cc4c3C[C@H](C)N2C(=O)CCl)cc1 [Compound 278] | – |
| 0.03 | 0.067 | C[C@H]1Cc2c([nH]c3ccccc23)[C@H](c2ccc(S(=O)(=O)NC3CCN(C(=O)OC(C)(C)C)CC3)cc2)N1C(=O)CCl [Compound 293, tert-butyl-4-((4-((1S,3S)-2-(2-chloroacetyl)-3-methyl-2,3,4,9-tetrahydro-1H-pyrido[3,4-b]indol-1-yl)phenyl)sulfonamido)piperidine-1-carboxylate] | – |
| – | 0.275 | Cc1ccc(S(=O)(=O)OCC(=O)N2[C@@H](c3ccc(N4CCOCC4)cc3)c3[nH]c4ccccc4c3C[C@@H]2C)cc1 [Compound 223] | – |
| 0.147 | – | C[C@H]1Cc2c([nH]c3ccccc23)[C@H](c2ccc(N3CCN(C)CC3)cc2)N1C(=O)CCl [Example 104] | – |

Further lines, the molecule ahead of its results:

| Structure (SMILES) | IC50 (SJSA-1; [1]) [µM] | IC50 (786-O; [2]) [µM] | also measured |
| --- | --- | --- | --- |
| COC(=O)c1ccc([C@H]2c3[nH]c4ccc(Cl)cc4c3C[C@H](C(=O)OC)N2C(=O)CCl)cc1 [Example 93] | – | – | IC50 (A549): 250 nM |
| C=C(C(=O)N1[C@@H](c2ccc(N3CCOCC3)cc2)c2[nH]c3ccccc3c2C[C@@H]1C)C(F)(F)F [Compound 175] | > 10 | > 10 | – |
| CCS(=O)(=O)N1CCN(c2ccc([C@H]3c4[nH]c5ccccc5c4C[C@H](C)N3C(=O)CCl)cc2)CC1 [Compound 209] | – | 0.022 | IC50 (SJSA-1; [3]): 8.29 µM; IC50 (SJSA-1; [4]): 0.019 µM; IC50 (786-O; [5]): > 10 µM; IC50 (786-O; [6]): 0.022 µM |
| C[C@H]1Cc2c([nH]c3ccccc23)C(c2ccc(N3CCOCC3)nc2)N1C(=O)CCl (stereo partly drawn) [Compound 124] | – | 0.245 | – |
| CC1CN(c2ccc([C@H]3c4[nH]c5ccccc5c4C[C@H](C)N3C(=O)CCl)cc2)CC(C)O1 (stereo partly drawn) [Compound 212] | 0.011 | – | IC50 (SJSA-1; [3]): 5.03 µM; IC50 (SJSA-1; [4]): 0.011 µM; IC50 (786-O; [5]): 4.96 µM; IC50 (786-O; [6]): 0.008 µM |
| COC(=O)[C@H]1Cc2c([nH]c3ccccc23)[C@@H](c2ccc(C(=O)NC34CC5CC(CC(C5)C3)C4)cc2)N1C(=O)CCl [Compound 130, Methyl-(1R,3R)-1-(4-(((3S,5S,7S)-adamantan-1-yl)carbamoyl)phenyl)-2-(2-chloroacetyl)-2,3,4,9-tetrahydro-1H-pyrido[3,4-b]indole-3-carboxylate] | 2.7 | 1.8 | – |
| C[C@H]1Cc2c([nH]c3ccccc23)C(c2ccc(S(N)(=O)=O)cc2)N1C(=O)CCl (stereo partly drawn) [Compound 123] | – | 2.4 | – |
| COC[C@H]1Cc2c([nH]c3ccccc23)C(c2ccc(C(=O)NC3CC3)cc2F)N1C(=O)CCl (stereo partly drawn) [Compound 162, 4-((3R)-2-(2-chloroacetyl)-3-(methoxymethyl)-2,3,4,9-tetrahydro-1H-pyrido[3,4-b]indol-1-yl)-N-cyclopropyl-3-fluorobenzamide] | 0.085 | 0.06 | – |
| C[C@H]1Cc2c([nH]c3ccccc23)[C@@H](c2ccc(S(=O)(=O)NC3CCNCC3)cc2)N1C(=O)CCl [Compound 133, 4-((1R,3S)-2-(2-chloroacetyl)-3-methyl-2,3,4,9-tetrahydro-1H-pyrido[3,4-b]indol-1-yl)-N-(piperidin-4-yl)benzenesulfonamide2,2,2-trifluoroacetic acid] | > 10 | > 10 | – |
| C[C@H]1Cc2c([nH]c3ccccc23)[C@H](c2cnn(C3CCOCC3)c2)N1C(=O)CCl [Compound 158] | – | 0.591 | – |
| C#CC(=O)N1[C@@H](c2ccc(S(=O)(=O)NC3CC3)cc2F)c2[nH]c3ccc(F)cc3c2C[C@@H]1C [Compound 153, N-cyclopropyl-3-fluoro-4-((1S,3S)-6-fluoro-3-methyl-2-propioloyl-2,3,4,9-tetrahydro-1H-pyrido[3,4-b]indol-1-yl)benzenesulfonamide] | 0.015 | 0.009 | – |
| CC1CN(c2ccc([C@@H]3c4[nH]c5ccccc5c4C[C@H](C)N3C(=O)CCl)cc2)CCO1 (stereo partly drawn) [Compound 127] | – | > 10 | – |
| C[C@H]1Cc2c([nH]c3ccccc23)[C@@H](c2ccc(C(=O)Nc3ccccn3)cc2)N1C(=O)CCl (single isomer, unassigned) [Compound 160] | 1.3 | 1 | – |
| C[C@H]1Cc2c([nH]c3ccccc23)[C@@H](c2cnn(C3CCOCC3)c2)N1C(=O)CCl [Compound 159] | – | 4.6 | – |
| C[C@H]1Cc2c([nH]c3ccccc23)[C@@H](c2ccc(N3CCOCC3)cc2)N1C(=O)CCl [Compound 125, 2-chloro-1-((1R,3S)-3-methyl-1-(4-morpholinophenyl)-1,3,4,9-tetrahydro-2H-pyrido[3,4-b]indol-2-yl)ethan-1-one] | 4 | 2 | – |
| C#CCOc1ccc2[nH]c3c(c2c1)C[C@H](C(=O)OC)N(C(=O)CCl)[C@H]3c1ccc(C(=O)NC23CC4CC(CC(C4)C2)C3)cc1 [Compound 211] | – | 0.009 | IC50 (SJSA-1; [3]): 5.92 µM; IC50 (SJSA-1; [4]): 0.011 µM; IC50 (786-O; [5]): 3.94 µM; IC50 (786-O; [6]): 0.009 µM |
| C[C@H]1Cc2c([nH]c3ccccc23)[C@H](c2ccc(N3CCN(C)CC3)cc2)N1C(=O)OCl [Compound 104] | – | 0.068 | IC50 (KP4): 0.01 to 0.1 µM |
| C[C@H]1Cc2c([nH]c3ccccc23)[C@H](c2ccncc2)N1C(=O)CCl [Compound 171] | – | 0.162 | IC50 (SJSA-1; [3]): > 10 µM; IC50 (SJSA-1; [4]): 0.254 µM; IC50 (786-O; [5]): > 10 µM; IC50 (786-O; [6]): 0.162 µM |
| C[C@H]1Cc2c([nH]c3ccccc23)[C@@H](c2ccc(S(=O)(=O)NC3CC3)cc2F)N1C(=O)CCl (single isomer, unassigned) [Compound 161] | 4.3 | 2.8 | – |
| C#CC(=O)N1[C@@H](c2ccc(S(=O)(=O)NC3CC3)cc2F)c2[nH]c3ccccc3c2C[C@@H]1C [Compound 174] | – | 0.016 | IC50 (SJSA-1; [3]): 2.32 µM; IC50 (SJSA-1; [4]): 0.091 µM; IC50 (786-O; [5]): 5.09 µM; IC50 (786-O; [6]): 0.016 µM |
